The values that follow come from patent publication US8211900B2, “DHFR enzyme inhibitors” (Chroma Therapeutics Ltd., priority 2006, dated 2012).

pIC50: −log10 of the molar value.

The target in test [1] is T1, recombinant human DHFR (Homo sapiens, UniProt P00374).
T1 construct: purchased Sigma CS0340
T1 sequence (P00374 1-187): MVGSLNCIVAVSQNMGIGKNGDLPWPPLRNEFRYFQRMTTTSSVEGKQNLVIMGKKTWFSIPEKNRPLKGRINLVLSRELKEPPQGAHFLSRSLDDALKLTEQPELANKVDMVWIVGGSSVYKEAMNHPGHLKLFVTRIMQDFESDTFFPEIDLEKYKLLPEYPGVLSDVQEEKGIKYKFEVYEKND
In words: DHFR enzyme inhibition assay (Sigma kit CS0340). The following applies: NADPH 60 μM, dihydrofolic acid 50 μM. The class given is biochemical. As for the experimental part:
The ability of compounds to inhibit DHFR activity was measured in an assay based on the ability of DHFR to catalyse the reversible NADPH-dependent reduction of dihydrofolic acid to tetrahydrofolic acid using a Sigma kit (Catalogue number CS0340). This uses proprietary assay buffer and recombinant human DHFR at 7.5×10^−4 Unit per reaction, NADPH at 60 μM and dihydrofolic acid at 50 μM. The reaction was followed by monitoring the decrease in absorbance at 340 nm, for a 2 minute period, at room temperature, and the enzyme activity was calculated as the rate of decrease in absorbance. Enzyme activity, in the presence of inhibitor, was expressed as a percentage of inhibitor-free activity and the inhibitor IC50 was determined from a sigmoidal dose response curve using XLfit software (% activity against log concentration of compound). Each sample was run in triplicate and each dose response curve was composed of 10 dilutions of the inhibitor.

Test [2] deals with U937. As to the kind of experiment: Cell inhibition assay (WST-1 cell viability), U937. Type of test: cell-based. The following applies: Homo sapiens, U-937, U937 cells, 72-96 h, read-out: Inhibition cell proliferation U937. As for the experimental part: (§1) Cancer cell lines (U937, HCT-116, THP-1 and HUT78) growing in log phase were harvested and seeded at 1000-2000 cells/well (100 μl final volume) into 96-well tissue culture plates. Following 24 h of growth cells were treated with compound.
(§2) Plates were then re-incubated for a further 72-96 h before a WST-1 cell viability assay was conducted according to the suppliers (Roche Applied Science) instructions. Data were expressed as a percentage inhibition of the control, measured in the absence of inhibitor, as follows:— % inhibition=100−((S^i/S^o)×100) where S^i is the signal in the presence of inhibitor and S^o is the signal in the presence of DMSO. Dose response curves were generated from 8 concentrations (top final concentration 10 μM, with 3-fold dilutions), using 6 replicates. IC50 values were determined by non-linear regression analysis, after fitting the results to the equation for sigmoidal dose response with variable slope (% activity against log concentration of compound), using Graphpad Prism software. IC50 values were allocated to one of the three ranges as follows: • Range A IC %)<100 nM • Range B: 100 nM<IC50<1000 nM • Range C: IC50>1000 nM
In general terms: Tetrazolium assays rely on reduction of a dye to a coloured formazan, in cell work by metabolically active cells.

Test [3] relates to HCT-116. As to the kind of experiment: Cell inhibition assay (WST-1 cell viability), HCT-116. The class given is cell-based. As to conditions: Homo sapiens, HCT-116 cells, 72-96 h, read-out: Inhibition cell proliferation HCT-116. As for the experimental part: as §1, §2
Test [4] has as its system HUT78. As to the kind of experiment: Cell inhibition assay (WST-1 cell viability), HUT78. The class given is cell-based. The following applies: Homo sapiens, HUT78 cells, 72-96 h, read-out: Inhibition cell proliferation HUT. As for the experimental part:
as §1, §2

The subject of test [5] is THP-1. In words: Cell inhibition assay (WST-1 cell viability), THP-1. As to conditions: Homo sapiens, THP-1 cells, 72-96 h, read-out: Inhibition cell proliferation THP-1. Type of test: cell-based. As to the method: as §1, §2

As to `COc1cc(NCc2ccc3nc(N)nc(N)c3c2C)cc(OC)c1OCC(=O)N[C@@H](CC(C)C)C(=O)OC(C)(C)C` [Example 6, tert-Butyl N-[(4-{[(2,4-diamino-5-methylquinazolin-6-yl)methyl]amino}-2,6-dimethoxyphenoxy)acetyl]-L-leucinate], the pIC50 in test [1] was less than 6.00; in test [2] it was greater than 7.00; in test [3], 6.00 to 7.00; in test [4] it was 6.00 to 7.00; in test [5] it was greater than 7.00.
With `COc1cc(NCc2ccc3nc(N)nc(N)c3c2C)cc(OC)c1OCC(=O)N[C@@H](CC(C)C)C(=O)OC1CCCC1` [Example 5, Cyclopentyl N-[(4-{[(2,4-diamino-5-methylquinazolin-6-yl)methyl]amino}-2,6-dimethoxyphenoxy)acetyl]-L-leucinate], the pIC50 in test [1] is less than 6.00; in test [2], greater than 7.00; in test [3], 6.00 to 7.00; in test [4], greater than 7.00; in test [5], greater than 7.00.
Consider `Cc1c(CNc2ccc(CN[C@@H](CC(C)C)C(=O)O)cc2)cnc2nc(N)nc(N)c12` [Example 4, (S)-2-{4-[(2,4-Diamino-5-methyl-pyrido[2,3-d]pyrimidin-6-ylmethyl)-amino]-benzylamino}-4-methyl-pentanoic Acid], for which the pIC50 in test [1] is greater than 7.00.
As to `Cc1c(CNc2ccc(CN[C@@H](CC(C)C)C(=O)OC3CCCC3)cc2)cnc2nc(N)nc(N)c12` [Example 3, (S)-2-{4-[(2,4-Diamino-5-methyl-pyrido[2,3-d]pyrimidin-6-ylmethyl)-amino]-benzylamino}-4-methyl-pentanoic Acid Cyclopentyl Ester], the pIC50 in test [1] is less than 6.00; in test [2], greater than 7.00; in test [3], less than 6.00; in test [4], 6.00 to 7.00; in test [5] it was 6.00 to 7.00.
As to `COc1cc(NCc2ccc3nc(N)nc(N)c3c2C)cc(OC)c1OCCN[C@@H](CC(C)C)C(=O)O` [Example 9, N-[2-(4-{[(2,4-diamino-5-methylquinazolin-6-yl)methyl]amino}-2,6-dimethoxyphenoxy)ethyl]-L-leucine], in test [1], the pIC50 was greater than 7.00.
Consider `COc1cc(NCc2ccc3nc(N)nc(N)c3c2C)cc(OC)c1OCCN[C@@H](CC(C)C)C(=O)OC(C)(C)C` [Example 10, tert-Butyl N-[2-(4-{[(2,4-diamino-5-methylquinazolin-6-yl)methyl]amino}-2,6-dimethoxyphenoxy)ethyl]-L-leucinate], for which the pIC50 in test [1], in test [2], in test [3], in test [4] and in test [5] was 6.00 to 7.00 each time.
As for `Cc1c(CNc2ccc(C(=O)N[C@@H](CC(C)C)C(=O)O)cc2)cnc2nc(N)nc(N)c12` [Example 2, (S)-2-(4-((2,4-diamino-5-methylpyrido[2,3-a]pyrimidin-6-yl)methylamino)benzamido)-4-methylpentanoic Acid], in test [1], the pIC50 is greater than 7.00.
Take `COc1cc(NCc2ccc3nc(N)nc(N)c3c2C)cc(OC)c1OCC(=O)N[C@@H](CC(C)C)C(=O)O` [Example 7, N-[(4-{[(2,4-diamino-5-methylquinazolin-6-yl)methyl]amino}-2,6-dimethoxyphenoxy)acetyl]-L-leucine]: the pIC50 in test [1] was greater than 7.00.
As for `Cc1c(CNc2ccc(C(=O)N[C@@H](CC(C)C)C(=O)OC3CCCC3)cc2)cnc2nc(N)nc(N)c12` [Example 1, (S)-2-{4-[(2,4-Diamino-5-methyl-pyrido[2,3-d]pyrimidin-6-ylmethyl)-amino]-benzoylamino}-4-methyl-pentanoic Acid Cyclopentyl Ester], the pIC50 is less than 6.00 in test [1]; greater than 7.00 in test [2]; greater than 7.00 in test [3]; greater than 7.00 in test [4]; greater than 7.00 in test [5].
For the compound `COc1cc(NCc2ccc3nc(N)nc(N)c3c2C)cc(OC)c1OCCN[C@@H](CC(C)C)C(=O)OC1CCCC1` [Example 8, Cyclopentyl N-[2-(4-{[(2,4-diamino-5-methylquinazolin-6-yl)methyl]amino}-2,6-dimethoxyphenoxy)ethyl]-L-leucinate], the pIC50 in test [1] was 6.00 to 7.00; in test [2], greater than 7.00; in test [3], 6.00 to 7.00; in test [4], greater than 7.00; in test [5], greater than 7.00.
